The record followed here is patent publication US11274093B2, “Fused bicyclic benzoheteroaromatic compounds and methods of use thereof” (Araxes Pharma LLC, priority 2017, dated 2022).

Structures are written as SMILES.

This assay deals with T1, KRAS G12C 1-169, his-tagged protein, GDP-loaded (Homo sapiens, UniProt P01116, G12C).
T1 construct: KRAS G12C 1-169, his-tagged protein, GDP-loaded
Description: Biochemical assay: covalent binding to KRAS G12C measured by mass spectrometry. As to conditions: covalently bind to KRAS G12C, after a thirty minute incubation period. As for the experimental part:
Test compounds were prepared as 10 mM stock solutions in DMSO (Fisher cat #BP-231-100). KRAS G12C 1-169, his-tagged protein, GDP-loaded was diluted to 0.5 μM in buffer (20 mM Hepes, 150 mM NaCl, 1 mM MgCl2). Compounds were tested for activity as follows:
Compounds were diluted to 50× final test concentration in DMSO in 96-well storage plates. Compound stock solutions were vortexed before use and observed carefully for any sign of precipitation. Dilutions were as follow: • For 100 μM final compound concentration, compounds were diluted to 5000 μM (5 μL 10 mM compound stock+5 μL DMSO and mixed well by pipetting. • For 30 μM final compound concentration, compounds were diluted to 1500 μM (3 μL 10 mM compound stock+17 μL DMSO) and mixed well by pipetting. • For 10 μM final compound concentration, compounds were diluted to 500 μM (2 μL 10 mM compound stock+38 μL DMSO) and mixed well by pipetting. 49 μL of the stock protein solution was added to each well of a 96-well PCR plate (Fisher cat #1423027). 1 μl of the diluted 50× compounds were added to appropriate wells in the PCR plate using 12-channel pipettor. Reactions were mixed carefully and thoroughly by pipetting up/down with a 200 μL multi-channel pipettor. The plate was sealed well with aluminum plate seal, and stored in drawer at room temperature for 10 minutes, 30 minutes, 2 hours or 24 hours. 5 μL of 2% formic acid (Fisher cat #A117) in de-ionized H2O was then added to each well followed by mixing with a pipette. The plate was then resealed with aluminum seal and stored on dry ice until analyzed as described below.
The above described assays were analyzed by mass spectrometry according to one of the following two procedures:
The MS instrument is set to positive polarity, 2 GHz resolution, and low mass (1700) mode and allowed to equilibrate for 30 minutes. The instrument is then calibrated, switched to acquisition mode and the appropriate method loaded.
After another 30 minute equilibration time, a blank batch (i.e., buffer) is run to ensure equipment is operating properly. The samples are thawed at 37° C. for 10 minutes, briefly centrifuged, and transfer to the bench top. Wells A1 and H12 are spiked with 1 μL 500 μM internal standard peptide, and the plates centrifuged at 2000×g for 5 minutes. The method is then run and masses of each individual well recorded.
The masses (for which integration data is desired) for each well are pasted into the platemap and exported from the analysis. Masses for the internal standards are exported as well. The data at 50 ppm is extracted for the +19 charge state, and identity of well A1 is assigned using the internal standard spike and integrated. Peak data is exported as a TOF list and the above steps are repeated individually, for the +20, 21, 22, 23, 24, and 25 charge states.
The masses and peak intensities of KRAS G12C protein species were measured using a Dionex RSLCnano system (Thermo Scientific) connected to a Q Exactive Plus mass spectrometer (Thermo Scientific).
[…] of sample was each loaded onto a Aeris™ […] WIDEPORE C4 200 Å, LC Column 50×2.1 mm column maintained at 40° C. at a flow rate of 600 μL/min with […] (0.1% formic acid in acetonitrile). The liquid chromatography conditions were 20% solvent B for 1 minute, 20% to 60% solvent B for 1.5 minutes, 60% to 90% solvent for 0.5 minute, 90% solvent B for 0.2 minute, 90% to 20% solvent B for 0.2 minute, and then equilibrated for 1.6 minute before the following sample injection. The flow rate was maintained at 600 μL/min throughout the sample analysis.
The mass spectrometer was operated in profile mode at a resolution of 17500, 5 microscans, using 50 msec max injection time and an AGC target of 1×10^6, and a full mass range from 800-1850 m/z was recorded. The HCD trapping gas was optimized for maximum sensitivity for intact proteins. […]
As for `C=CC(=O)N1CCC(Nc2cnnc3c(-c4c(C)ccc5[nH]ncc45)cccc23)C1` (centres unmarked) [Compound 23, 1-(3-((8-(5-methyl-1H-indazol-4-yl)cinnolin-4-yl)amino)pyrrolidin-1-yl)prop-2-en-1-one], the Binding % entry was “+ (+ indicates binding activity up to 5%)”.

With `C=CC(=O)N1CC(Nc2cncc3c(-c4cc(O)cc5ccccc45)ccnc23)C1` [Compound 24, 1-(3-((4-(3-hydroxynaphthalen-1-yl)-1,6-naphthyridin-8-yl)amino)azetidin-1-yl)prop-2-en-1-one], the Binding % result is “++ (++ indicates binding activity of 5% or more)”.

For the compound `C=CC(=O)N1CCN(c2cnnc3c(-c4cc(O)cc5ccccc45)cccc23)CC1` [Compound 20, 1-(4-(8-(3-hydroxynaphthalen-1-yl)cinnolin-4-yl)piperazin-1-yl)prop-2-en-1-one], the Binding % entry was “++ (++ indicates binding activity of 5% or more)”.

With `C=CC(=O)N1CC(Nc2ncnc3c(-c4c(C)ccc5[nH]ncc45)cccc23)C1` [Compound 1, 1-(3-((8-(5-methyl-1H-indazol-4-yl)quinazolin-4-yl)amino)azetidin-1-yl)prop-2-en-1-one], the Binding % result is “+ (+ indicates binding activity up to 5%)”.

Take `C=CC(=O)N1CC(Nc2ncnc3c(-c4cc(O)cc5ccccc45)cccc23)C1` [Compound 2, 1-(3-((8-(3-hydroxynaphthalen-1-yl)quinazolin-4-yl)amino)azetidin-1-yl)prop-2-en-1-one]: the Binding % entry is “++ (++ indicates binding activity of 5% or more)”.

With `C=CC(=O)N1CCN(c2cnnc3c(-c4c(C)ccc5[nH]ncc45)cccc23)CC1` [Compound 19, 1-(4-(8-(5-methyl-1H-indazol-4-yl)cinnolin-4-yl)piperazin-1-yl)prop-2-en-1-one], the Binding % entry is listed as “+ (+ indicates binding activity up to 5%)”.

`C=CC(=O)N1CCC(Nc2cnnc3c(-c4cc(O)cc5ccccc45)cccc23)C1` (centres unmarked) [Compound 22]: the Binding % entry is “+ (+ indicates binding activity up to 5%)”.

As for `C=CC(=O)N1CCCC(Nc2cnnc3c(-c4c(C)ccc5[nH]ncc45)cccc23)C1` (centres unmarked) [Compound 21, 1-(3-((8-(5-methyl-1H-indazol-4-yl)cinnolin-4-yl)amino)piperidin-1-yl)prop-2-en-1-one], the Binding % entry is “+ (+ indicates binding activity up to 5%)”.

`C=CC(=O)N1CC(Nc2cnnc3c(-c4cc(O)cc5ccccc45)cccc23)C1` [Compound 18, 1-(3-((8-(3-hydroxynaphthalen-1-yl)cinnolin-4-yl)amino)azetidin-1-yl)prop-2-en-1-one]: the Binding % entry is “++ (++ indicates binding activity of 5% or more)”.

Take `C=CC(=O)N1CC(Nc2cncc3c(-c4cc(O)cc5ccccc45)cccc23)C1` [Compound 25, 1-(3-((8-(3-hydroxynaphthalen-1-yl)isoquinolin-4-yl)amino)azetidin-1-yl)prop-2-en-1-one]: the Binding % result was “++ (++ indicates binding activity of 5% or more)”.

`C=CC(=O)N1CC(Nc2cncc3c(-c4c(C)ccc5[nH]ncc45)cccc23)C1` [Compound 26, 1-(3-((8-(5-methyl-1H-indazol-4-yl)isoquinolin-4-yl)amino)azetidin-1-yl)prop-2-en-1-one]: the Binding % entry is “++ (++ indicates binding activity of 5% or more)”.
